In patent US6875578B2, “System for cell-based screening” (priority 1997, dated 2005):
Entries after “also recorded” stand apart in the source; their conditions may differ.

Assays:
[1] = test system: caspase-3; experiment: Caspase-3 biosensor apoptosis assay, BHK cells; format: cell-based; details: BHK cells transfected with the caspase 3 biosensor
Procedure: (§1) For DNA transfection, BHK cells and MCF-7 cells were cultured to 50-70% confluence in 6 well plates containing 3 ml of minimal Eagle's medium (MEM) with 10% fetal calf serum, 1 mM L-glutamine, 50 μg/ml streptomycin, 50 μg/ml penicillin, 0.1 mM non-essential amino acids, 1 mM sodium pyruvate and 10 μg/ml of bovine insulin (for MCF-7 cell only) at 37° C. in a 5% CO2 incubator for about 36 hours. The cells were washed with serum free MEM media and incubated for 5 hours with 1 ml of transfection mixture containing 1 μg of the appropriate plasmid and 4 μg of lipofectimine (BRL) in the serum free MEM media. Subsequently, the transfection medium was removed and replaced with 3 ml of normal culture media. The transfected cells were maintained in growth medium for at least 16 hours before performing selection of the stable cells based on standard molecular biology methods (Ausubel. et al 1995).
For apoptosis assays, the cells (BHK, MCF-7) stably transfected with the appropriate protease biosensor expression vector were plated on tissue culture treated 96-well plates at 50-60% confluence and cultured overnight at 37° C., 5% CO2. […]
(§2) The biosensor response is measured by quantitating the effective cytoplasm-to-nuclear translocation of the signal (see above). […]

[2] = test system: caspase-3; details: MCF-7 cells; accompanied by cleavage of PARP; cited from earlier work
[3] = test system: caspase-3; experiment: Caspase-3 biosensor apoptosis assay, MCF-7 cells; format: cell-based; details: MCF-7 cells
Procedure: as §1
For apoptosis assays, the cells (BHK, MCF-7) stably transfected with the appropriate protease biosensor expression vector were plated on tissue culture treated 96-well plates at 50-60% confluence and cultured overnight at 37° C., 5% CO2. Varying concentrations of cis-platin, staurosporine, or paclitaxel in normal culture media were freshly prepared from stock and added to cell culture dishes to replace the old culture media. The cells were then observed with the cell screening system of the present invention at the indicated time points either as live cell experiments or as fixed end-point experiments.
This biosensor is restricted to the cytoplasm by the reactant target sequence. The reactant target sequence is the annexin II cytoskeletal binding domain ([…]) (SEQ ID NO:124) (FIG. 29C) (Eberhard et al. 1997. Mol. Biol. Cell 8:293a). The enzyme recognition site corresponds to two copies of the amino acid sequence DEVD (SEQ ID NO:60) (FIG. 29B), which serves as the recognition site of caspase-3. […]
as §2

[4] = test system: BHK cells; experiment: Apoptosis mitochondrial mass/potential, BHK cells; format: cell-based; details: 30 hours
Procedure: (§3) Cells were plated into 96-well plates at densities of 3×10^3 to 1×10^4 cells/well. The following day apoptotic inducers were added at the indicated concentrations and cells were incubated for the indicated time periods (usually 16-30 hours). Cells were stained with 5 μg/ml Hoechst (Molecular Probes, Inc.) and 750 nM MITOTRACKER™ Red (CMXRos, Molecular Probes, Inc.) in fresh medium and incubated for 30 minutes at 37° C. Cells were washed in HBSS and fixed with 3.7% formaldehyde in HBSS at room temperature. Plates were washed with HBSS and permeabilized with 0.5% v/v TRITON™ X-100 in HBSS at room temperature. Cells were washed 2× with HBSS at room temperature and the plate was sealed. For dual labeling of mitochondria, cells were treated with 200 nM MITOTRACKER™ Green and 200 nM MITOTRACKER™ Red for 0.5 hours before fixation.
(§4) The mitochondrial membrane potential is measured by labeling mitochondria with both MITOTRACKER™ Green FM and MITOTRACKER™ Red (Molecular Probes, mc). MITOTRACKER™ Red labeling is proportional to both mass and membrane potential. MITOTRACKER™ Green FM labeling is proportional to mass. The ratio of MITOTRACKER™ Red signal to the MITOTRACKER™ Green FM signal provides a measure of mitochondrial membrane potential (Poot and Pierce, 1999). This ratio normalizes the […]. […]

[5] = test system: L929 cells; experiment: Apoptosis mitochondrial mass/potential, L929 cells; format: cell-based, mouse; details: 30 hours
Procedure: as §3, §4

[6] = test system: MCF-7 cells; experiment: Apoptosis mitochondrial mass/potential, MCF-7 cells; format: cell-based; details: 30 hours
Procedure: as §3, §4

[7] = test system: L929 cells; experiment: Apoptosis nuclear morphology, L929 cells; format: cell-based, mouse; details: 30 hours
Procedure: (§5) Cells were plated into 96-well plates at densities of 3×10^3 to 1×10^4 cells/well. The following day apoptotic inducers were added at indicated concentrations and cells were incubated for indicated time periods (usually 16-30 hours). The next day medium was removed and cells were stained with 5 μg/ml Hoechst (Molecular Probes, Inc.) in fresh medium and incubated for 30 minutes at 37° C. Cells were washed in Hank's Balanced Salt Solution (HBSS) and fixed with 3.7% formaldehyde in HBSS at room temperature. Cells were washed 2×with HBSS at room temperature and the plate was sealed.
(§6) Quantitation of changes in nuclear morphology upon induction of apoptosis was accomplished by (1) measuring the effective size of the nuclear region; and (2) measuring the degree of convolution of the perimeter.

[8] = test system: BHK cells; experiment: Apoptosis nuclear morphology, BHK cells; format: cell-based; details: 30 hours
Procedure: as §5, §6

[9] = test system: MCF-7 cells; experiment: Apoptosis actin reorganization (f-actin content), MCF-7 cells; format: cell-based; details: 30 hours
Procedure: (§7) Cells were plated in 96-well plates at densities of 3×10^3 to 1×10^4 cells/well. The following day apoptotic inducers were added at indicated concentrations. Cells were incubated for the indicated time periods (usually 16-30 hours). The next day the medium was removed and cells were stained with 5 μg/ml Hoechst (Molecular Probes, Inc.) in fresh medium and incubated for 30 minutes at […]. Cells were washed in HBSS and fixed with 3.7% formaldehyde in HBSS at room temperature. Plates were washed with HBSS and permeabilized with 0.5% v/v Triton X-100 in HBSS at room temperature. Plates were washed in HBSS and stained with 100 μl of 1 U/ml of Alexa 488 Phalloidin stock (100 μl/well, Molecular Probes, Inc.). Cells were washed 2×with HBSS at RT and the plate was sealed.
(§8) Quantitation of f-actin content was accomplished by measuring the intensity of phalloidin staining around the nucleus. This was determined to be a reasonable approximation of a full cytoplasmic average of the intensity. The mask used to approximate this cytoplasmic measure was derived from the nuclear mask defined by the Hoechst stain. Derivation was accomplished by combinations of erosions and dilations.

[10] = test system: L929 cells; experiment: Apoptosis actin reorganization (f-actin content), L929 cells; format: cell-based, mouse; details: 30 hours
Procedure: as §7, §8

[11] = test system: MCF-7 cells; experiment: Apoptosis nuclear morphology, MCF-7 cells; format: cell-based; details: 30 hours
Procedure: as §5, §6

[12] = test system: BHK cells; experiment: Apoptosis actin reorganization (f-actin content), BHK cells; format: cell-based; details: 30 hours
Procedure: as §7, §8

[13] = test system: NF-κB; experiment: NF-κB immunolocalization in toxin treated SNB19 cells; format: cell-based; details: based on molecular weights of 17 kD, read-out: EC50 (NF-κB activation)
Excerpt: (§9) For further studies, we characterized endogenous NF-κB activation by immunolocalization in toxin treated cells. The NF-κB antibodies used in this study were purchased from Santa Cruz Biotechnology, Inc. (Santa Cruz, Calif.), and secondary antibodies are from Molecular Probes (Eugene, Oreg.).
(§10) For the 3T3 and SNB19 cell types, we determined the effective concentrations that yield response levels of 50% of the maximum (EC50), expressed in units of mass per volume (ng/ml) and units of molarity. Based on molecular weights of 17 kD for both TNFα and IL-1α, the EC50 levels for these two compounds with 3T3 and SNB19 cell types are given in units of molarity in Table 1.
For these experiments, either 10 or 100 TNFα-treated 3T3 or SNB19 cells/well were tested. On the basis of the standard deviations measured for these samples, and by taking t-values for the student's t-test, we have estimated the minimum detectable doses for each case of cell type, compound, number of cells per well, and for different choices of how many wells are sampled per condition. The latter factor determines the number of degrees of freedom that are provided in the sample of data. […] If the false positive rate is relaxed to 20%, a concentration of approximately half that value can be detected (0.83 ng/ml). […]

[14] = test system: p38 MAPK and NF-κB pathways; experiment: Dual labeling assay of the p38 MAPK and NF-κB pathways; format: cell-based; details: added alone; two different cell types
Excerpt: The assay we present here measures, as one of its parameters, p38 activation using immunolocalization of the phosphorylated form of p38 in toxin-treated cells. The assay was developed to be flexible enough to include the simultaneous measurement of other parameters within the same individual cells. Because the signal transduction pathway mediated by the transcription factor NF-κB is also known to be involved in the cell stress response, we included the activation of NF-κB as a second parameter in the same assay.
Multiple cell types, model toxins, and antibodies were tested, and significant stimulation of both pathways was measured in a high-content mode. The phospho-p38 antibodies used in this study were purchased from Sigma Chemical Company (St. Louis, Mo.). We report that at least two cell stress signaling pathways can not only be measured simultaneously, but are differentially responsive to classes of model toxins.

[15] = test system: NF-κB; experiment: NF-κB immunolocalization in toxin treated 3T3 cells; format: cell-based
Excerpt: as §9, §10
For these experiments, either 10 or 100 TNFα-treated 3T3 or SNB19 cells/well were tested. On the basis of the standard deviations measured for these samples, and by taking t-values for the student's t-test, we have estimated the minimum detectable doses for each case of cell type, compound, number of cells per well, and for different choices of how many wells are sampled per condition. The latter factor determines the number of degrees of freedom that are provided in the sample of data. Increasing the number of wells from 4 to 16, and increasing the number of cells per well from 10 to 100, improves the minimum detectable doses considerably. […] If the false positive rate is relaxed to 20%, a concentration of approximately half that value can be detected (0.83 ng/ml). One hundred cells can conveniently be sampled over a cell culture surface area of less than 1 mm^2.

N.N.[Cl][Pt][Cl] [cis-platin]
caspase activation reported by the biosensor [1]: accumulation of fluorescence in the nucleus

COc1cc([C@@H]2c3cc4c(cc3[C@@H](O[C@@H]3O[C@@H]5CO[C@@H](C)O[C@H]5[C@H](O)[C@H]3O)[C@H]3COC(=O)[C@H]23)OCO4)cc(OC)c1O [etoposide]
time of peak response in caspase-3 activity after stimulation [2]: 6 h | Caspase-3 activity with the caspase biosensor ([3]; 15 h treatment with 100 μM etoposide): not detected

CN[C@@H]1C[C@H]2O[C@@](C)([C@@H]1OC)n1c3ccccc3c3c4c(c5c6ccccc6n2c5c31)C(=O)NC4 [staurosporine]
mitochondrial changes (mass / membrane potential) [4]: either a decrease in membrane potential at lower concentrations of staurosporine, or an increase in mass at higher concentrations of staurosporine; also recorded: increases in mitochondrial mass | mitochondrial changes (mass / membrane potential) [5]: clear increase in mitochondrial mass; also recorded: increases in mitochondrial mass | mitochondrial changes (mass / membrane potential) [6]: consistent decrease in mitochondrial membrane potential; also recorded: a decrease in membrane potential | change in nuclear morphology [7]: dose-dependent change in nuclear morphology | change in nuclear morphology ([7]; listed as Staurosporine): classic nuclear fragmentation | change in nuclear morphology [8]: concentration dependent changes | change in nuclear morphology ([8]; listed as Staurosporine): nuclear condensation at lower doses and nuclear fragmentation at higher doses | change in peri-nuclear f-actin content [9]: either a decrease or increase depending on the concentration of staurosporine | change in peri-nuclear f-actin content ([9]; listed as Staurosporine): concentration-dependent response | change in peri-nuclear f-actin content [10]: dose-dependent increases in f-actin content | change in peri-nuclear f-actin content ([10]; listed as Staurosporine): induced increases in f-actin | change in nuclear morphology [11]: nuclear condensation | change in peri-nuclear f-actin content [12]: dose-dependent increase in f-actin | change in peri-nuclear f-actin content ([12]; listed as Staurosporine): induced increases in f-actin | magnitude of caspase activation relative to comparator ([3]; maximum magnitude): approximately one-half that demonstrated with cis-platin in BHK cells

IL-1α: model toxin, molecular weight 17 kD
EC50 [13]: 59 pM | differential response of the p38 MAPK and NF-κB pathways [14]: activators of specific pathways | EC50 (NF-κB activation) ([15]; based on molecular weights of 17 kD): 0.24 10^−12 moles/liter

tumor necrosis factor [TNFα]
EC50 [13]: 5.9 pM | differential response of the p38 MAPK and NF-κB pathways [14]: activators of specific pathways | EC50 value (NF-κB activation) [15]: 0.15 ng/mL | EC50 ([15]; based on molecular weights of 17 kD, read-out: EC50 (NF-κB activation)): 8.8 pM
